Laboratory results published in patent US10513731B2, “Modified nucleotides” (Illumina Cambridge Limited, priority 2002, dated 2019).

Tests used:
[1] = tested on: DNA polymerase; details: eight termination assays, each with a different DNA polymerase; cited from earlier work
[2] = target: T1, polymerase (Thermococcus sp. 9° N exo −Y409V A485L) (Thermococcus sp., UniProt Q56366, A485L/D141A/E143A/Y409V); assay: Enzyme incorporation of 3′-blocked dNTPs on a P32-labelled DNA primer/template, followed by a chase with native nucleoside triphosphates; type: biochemical
T1 construct: purchased New England Biolabs
Method: To a 100 nM DNA primer/template (primer previously labelled with P32 and T4 polynucleotide kinase) in Tris-HCl pH 8.8 50 mM, Tween-20 0.01%, and MgSO4 4 mM, add 2 μM compound 6 and 100 nM polymerase (Thermococcus sp. 9° N exo ^−Y409V A485L supplied by New England Biolabs). The template consists of a run of 10 adenine bases to show the effect of the block. The reaction is heated to 65 C for 10 mins. To show complete blocking, a chase is performed with the four native, unblocked nucleoside triphosphates.
To a 100 nM DNA primer/template (primer previously labelled with P32 and T4 polynucleotide kinase) in Tris-HCl pH 8.8 50 mM, Tween-20 0.01%, and MgSO4 4 mM, add 2 μM compound 38 and 100 nM polymerase (Thermococcus sp. 9° N exo ^−Y409V A485L supplied by New England Biolabs). The template consists of a run of 10 adenine bases to show the effect of the block. The reaction is heated to 65 C for 10 mins. To show complete blocking, a chase is performed with the four native, unblocked nucleoside triphosphates.

[3] = target: T1, polymerase (Thermococcus sp. 9° N exo −Y409V A485L); assay: Multiple cycles of incorporation, deblocking and capping on hairpin DNA attached to streptavidin beads, analysed by gel; type: biochemical; details: 2 μM FFN, 100 nM polymerase, 65° C. 10-15 minutes; deblocking with TCEP 0.1M, 65° C. 15 minutes
Method: By attaching a hairpin DNA (covalently attached self complementary primer/template) to a streptavidin bead The reaction can be performed over multiple cycles as shown in FIGS. 5 and 6.
Remove the storage buffer and wash the beads 3 times with TE buffer (Tris-HCl pH 8, 10 mM and EDTA, 1 mM). Resuspend in B & W buffer (10 mM Tris-HCl pH 7.5, 1 mM EDTA and 2.0 M NaCl), add biotinylated ^32P labelled hairpin DNA with appropriate overhanging template sequence. Allow to stand at room temperature for 15 minutes. Remove buffer and wash beads 3 times TE buffer.
To a solution of Tris-HCl pH 8.8 50 mM, Tween-20 0.01%, MgSO4 4 mM, MnCl2 0.4 mM (except cycle 1, 0.2 mM), add 2 μM FFN and 100 nM polymerase. This solution is then added to the beads and mixed thoroughly and incubated at 65° C. for 10-15 minutes. The reaction mixture is removed and the beads washed 3 times with TE buffer.
Tris-(2-carboxyethyl)phosphines trisodium salt (TCEP) (0.1M) is added to the beads and mixed thoroughly. The mixture was then incubated at 65° C. for 15 minutes. The deblocking solution is removed and the beads washed 3 times with TE buffer. […]
The reaction products can be analysed by placing the bead solution in the well of a standard 12% polyacrylamide DNA sequencing gel in 40% formamide loading buffer. […]

T1 sequence (Q56366 whole entry D141A/E143A/Y409V/A485L): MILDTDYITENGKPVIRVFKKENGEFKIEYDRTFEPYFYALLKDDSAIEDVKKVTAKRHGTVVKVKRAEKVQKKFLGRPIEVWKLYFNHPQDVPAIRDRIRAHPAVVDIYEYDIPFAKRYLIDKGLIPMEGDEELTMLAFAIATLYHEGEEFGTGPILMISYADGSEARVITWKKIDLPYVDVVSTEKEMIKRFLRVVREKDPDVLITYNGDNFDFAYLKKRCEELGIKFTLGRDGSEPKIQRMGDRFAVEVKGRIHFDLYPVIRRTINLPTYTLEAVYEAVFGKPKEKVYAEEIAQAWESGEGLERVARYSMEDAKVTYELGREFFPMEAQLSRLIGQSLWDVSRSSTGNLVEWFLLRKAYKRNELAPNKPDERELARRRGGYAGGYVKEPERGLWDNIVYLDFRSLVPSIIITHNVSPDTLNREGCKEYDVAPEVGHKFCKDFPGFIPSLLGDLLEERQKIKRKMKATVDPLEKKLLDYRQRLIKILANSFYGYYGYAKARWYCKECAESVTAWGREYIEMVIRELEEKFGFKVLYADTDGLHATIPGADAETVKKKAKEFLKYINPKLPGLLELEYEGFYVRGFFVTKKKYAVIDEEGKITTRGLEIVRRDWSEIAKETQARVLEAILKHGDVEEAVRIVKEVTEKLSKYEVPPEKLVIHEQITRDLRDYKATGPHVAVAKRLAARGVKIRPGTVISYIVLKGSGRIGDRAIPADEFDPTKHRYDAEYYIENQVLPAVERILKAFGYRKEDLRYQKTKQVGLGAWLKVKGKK

Compound	ability to terminate DNA synthesis [1]	incorporation of the blocked nucleotide ([2]; 2 μM compound, 100 nM polymerase, 100 nM primer/template, template with run of 10 adenine bases, 65 C for 10 mins)	block to further incorporation ([2]; chase with the four native, unblocked nucleoside triphosphates)	cycles of incorporation [3]
C=CCO[C@H]1C[C@H](n2cnc3c(N)ncnc32)O[C@@H]1COP(=O)(O)OP(=O)(O)OP(=O)(O)O [3′-allyl dATP, 3′allyl deoxyriboadenosine 5′-triphosphate]	terminate DNA synthesis in a single termination assay, out of eight			
CCN1/C(=C/C=C/C2=[N+](CCCCCC(=O)NCCSSCCC(=O)NCC#Cc3cn(C4CC(OCN=[N+]=[N-])C(COP(=O)(O)OP(=O)(O)OP(=O)(O)O)O4)c(=O)[nH]c3=O)c3ccc(S(=O)(=O)[O-])cc3C2(C)C)C(C)(C)c2cc(S(=O)(=O)O)ccc21 (centres unmarked) [compound 6]		Quantitative incorporation	effective block to further incorporation	six
CCN1/C(=C/C=C/C2=[N+](CCCCCC(=O)NCCSSCCC(=O)NCC#Cc3cn([C@H]4CC(OCN=[N+]=[N-])[C@@H](COP(=O)(O)OP(=O)(O)OP(=O)(O)O)O4)c4nc(N)[nH]c(=O)c34)c3ccc(S(=O)(=O)[O-])cc3C2(C)C)C(C)(C)c2cc(S(=O)(=O)O)ccc21 (some centres unmarked) [compound 24]				Two and two
